doi:10.1101/2021.07.14.452003v1 (biorxiv, 2021)

target: M. tuberculosis RnhC (Mt RnhC; Rv2228c; M. tuberculosis RNase HI) (Mycobacterium tuberculosis, UniProt P9WLH5); assay: biochemical
Sequence (P9WLH5 whole entry): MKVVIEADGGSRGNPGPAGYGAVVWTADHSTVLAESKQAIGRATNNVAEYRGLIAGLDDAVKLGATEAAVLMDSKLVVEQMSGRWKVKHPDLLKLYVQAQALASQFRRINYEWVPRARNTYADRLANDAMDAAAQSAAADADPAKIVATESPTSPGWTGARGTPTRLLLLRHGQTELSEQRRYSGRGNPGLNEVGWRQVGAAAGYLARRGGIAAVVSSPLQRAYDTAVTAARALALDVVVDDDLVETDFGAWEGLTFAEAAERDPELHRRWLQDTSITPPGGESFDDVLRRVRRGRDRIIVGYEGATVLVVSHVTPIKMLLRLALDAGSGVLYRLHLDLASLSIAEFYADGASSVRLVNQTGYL

**Q.** With `CC(C)c1ccc(O)c(=O)c(O)c1` [NSC18806] as the compound, how does the IC50 read?
**A.** Its IC50 is 32 µM.

**Q.** `Oc1ccc(-c2csc(Nc3ccccn3)n2)cc1O` [NSC353720] was tested. Which IC50 did it give?
**A.** The IC50 was 12 µM.

**Q.** How did the IC50 turn out when `COc1ccc(C2COc3cc(O)c(O)cc3C2)cc1` (stereo not shown) [NSC600285] was run?
**A.** Its IC50 is 17 µM.

**Q.** How did the IC50 turn out when `O=S(=O)(N/N=C/c1c(O)ccc2ccccc12)c1cc(Cl)c(Cl)cc1Cl` [NSC99726] was run?
**A.** Its IC50 is 45 µM.
